Starred links: 1 amine or outer side, 2 acyl side, 3 side chain; linkers in the order of their positions; H or OH if unused. Non-standard residues stand in square brackets, D forms with d. Residues, ends and D or L forms follow the SMILES beside them. No end group written: not given here. *: point of attachment. X1 = O=C([C@H](Cc1c[nH]c2ccccc12)N(Cc1ccccc1)[*:1])[*:2]; Tos = Cc1ccc(S(=O)(=O)*)cc1; Bz = O=C(c1ccccc1)*
What was measured:
[1] = tested on: erythrocytes from fresh human blood; settings: 5% erythrocytes, 1 h at 37° C., relative to 200 μM melittin; for % Haemolysis 50 μM: 50 μM peptide; for % Haemolysis 150 μM: 150 μM peptide; for % Haemolysis 250 μM: 250 μM peptide
Protocol: A description of the methodology used to determine the haemolytic activity is found in Oren et al, Biochemistry, 2000, 39, 6103-6114, and in Raguse et al., J. Am. Chem. Soc., 2002, 124, 12774-12785.
The haemolytic activity of the peptides of the invention was evaluated by determining the release of haemoglobin which is produced on placing in contact a solution of the peptides with a suspension of erythrocytes 5% by volume, from fresh human blood.
The blood was collected aseptically using a Vactainer® K2E system (Belliver, Great Britain) with EDTA and it was stored at 4° C. for a period lower than 2 hours.
The blood was centrifuged at 6000 g for 5 minutes to separate the erythrocytes. There were washed three times with TRIS buffer (10 mM TRIS, 150 mM NaCl, pH 7.2) and they were resuspended in TRIS buffer until obtaining a suspension which contained 10% by volume of erythrocytes.
The peptides were solubilized in TRIS buffer until a final concentration of 100, 300 and 500 μM
The replicas were used for each peptide and concentration.
65 μl of 10% erythrocyte suspension was mixed with 65 μl of the peptide solution in each well of a 96-well plate (Micro-Amp®, Applied Biosystems, USA) (5% by volume of erythrocytes) and the mixture was incubated for 1 h at 37° C. under stirring. In this way, the erythrocyte suspensions were subjected to peptide concentrations of 50, 150 and 250 μM.
Next, the plates were centrifuged at 3500 g during 10 minutes and aliquots were transferred of 80 μl of supernatant to microplates with 100 wells (Bioscreen), which were diluted with 80 μl of milli-Q water.
The degree of haemolysis was determined from the absorbance at 540 nm with a Bioscreen plate reader.
The complete positive haemolysis control was determined in a TRIS buffer solution which contained 200 μM melittin (Sigma-Aldrich, Spain)
The percentage of haemolysis (H) was determined using the following equation: H=100×[Op−Ob)/(Om−Ob)]
Where OP as the optical density measured for a determined peptide concentration, Ob was the optical density of the buffer solution, and Om was the optical density for the positive control with melittin.

[2] = tested on: Xanthomonas vesicatori 2133-2; assay: Minimum inhibitory concentration (MIC), microbial growth by optical density; settings: 48 h incubation at 25° C., TSB medium
[3] = tested on: Erwinia amylovora PMV6076; assay: as above; assay type: cell-based; settings: 48 h incubation at 25° C., TSB medium
Protocol: (§1) Each experiment was performed twice.

[4] = tested on: Pseudomonas syringae EPS94; assay: as above; assay type: cell-based; settings: 48 h incubation at 25° C., TSB medium
Protocol: as §1

Compound	% Haemolysis 50 μM [1]	% Haemolysis 150 μM [1]	% Haemolysis 250 μM [1]	range of concentrations including the MIC, X. vesicatoria [2]	range of concentrations including the MIC, E. amylovora [3]	range of concentrations including the MIC, P. syringae [4]
CC[C@H](C)[C@H](NC(=O)[C@H](CCCCN)NC(=O)[C@H](CCCCN)NC(=O)[C@H](Cc1ccccc1)NC(=O)[C@H](CC(C)C)NC(=O)[C@H](CCCCN)NC(=O)[C@H](Cc1ccc(O)cc1)NC(C)=O)C(=O)N[C@@H](CC(C)C)C(=O)N[C@@H](CCCCN)C(=O)N[C@@H](Cc1ccc(O)cc1)C(=O)N[C@@H](CC(C)C)C(N)=O [BP096]	47%	86%	85%			
CC[C@H](C)[C@H](NC(=O)[C@H](CCCCN)NC(=O)[C@H](CCCCN)NC(=O)[C@H](Cc1ccccc1)NC(=O)[C@H](CC(C)C)NC(=O)[C@H](CCCCN)NC(=O)[C@H](CCCCN)NS(=O)(=O)c1ccc(C)cc1)C(=O)N[C@@H](CC(C)C)C(=O)N[C@@H](CCCCN)C(=O)N[C@@H](Cc1c[nH]c2ccccc12)C(=O)N[C@@H](CC(C)C)C(N)=O [BP054] (Tos-KKLFKKILKWL-NH2)				<2.5 µM	>7.5 µM	5 to 7.5 µM
CC[C@H](C)[C@H](NC(=O)[C@H](CCCCN)NC(=O)[C@H](CCCCN)NC(=O)[C@H](Cc1ccccc1)NC(=O)[C@H](CC(C)C)NC(=O)[C@H](CCCCN)NC(=O)[C@H](CCCCN)NC(=O)c1ccccc1)C(=O)N[C@@H](CC(C)C)C(=O)N[C@@H](CCCCN)C(=O)N[C@@H](Cc1c[nH]c2ccccc12)C(=O)N[C@@H](CC(C)C)C(N)=O [BP055] (Bz-KKLFKKILKWL-NH2)				<2.5 µM	>7.5 µM	>7.5 µM
CC[C@H](C)[C@H](NC(=O)[C@H](CCCCN)NC(=O)[C@H](CCCCN)NC(=O)[C@H](Cc1ccccc1)NC(=O)[C@H](CC(C)C)NC(=O)[C@H](CCCCN)NC(=O)[C@H](Cc1ccc(O)cc1)NC(=O)c1ccccc1)C(=O)N[C@@H](CC(C)C)C(=O)N[C@@H](CCCCN)C(=O)N[C@@H](CCCCN)C(=O)N[C@@H](CC(C)C)C(N)=O [BP122] (Bz-YKLFKKILKKL-NH2)	32%	78%	96%	2.5 to 5 µM	>7.5 µM	5 to 7.5 µM
CC[C@H](C)[C@H](NC(=O)[C@H](CCCCN)NC(=O)[C@H](CCCCN)NC(=O)[C@H](Cc1ccccc1)NC(=O)[C@H](CC(C)C)NC(=O)[C@H](CCCCN)NC(=O)[C@H](Cc1c[nH]c2ccccc12)NCc1ccccc1)C(=O)N[C@@H](CC(C)C)C(=O)N[C@@H](CCCCN)C(=O)N[C@H](C(=O)N[C@@H](CC(C)C)C(N)=O)C(C)C [BP011] (H-[X1]KLFKKILKVL-NH2)	81%	96%	100%	2.5 to 5 µM	5 to 7.5 µM	5 to 7.5 µM
Ac-WKLFKKILKWL-NH2 [BP038]	80%	86%	80%	<2.5 µM	>7.5 µM	>7.5 µM
CC[C@H](C)[C@H](NC(=O)[C@H](CCCCN)NC(=O)[C@H](CCCCN)NC(=O)[C@H](Cc1ccccc1)NC(=O)[C@H](CC(C)C)NC(=O)[C@H](CCCCN)NC(=O)[C@H](CCCCN)NC(C)=O)C(=O)N[C@@H](CC(C)C)C(=O)N[C@@H](CCCCN)C(=O)N[C@@H](Cc1ccc(O)cc1)C(=O)N[C@@H](CC(C)C)C(N)=O [BP101]	4%	31%	62%	2.5 µM	>7.5 µM	5 to 7.5 µM
YKLFKKILKKL-NH2 [BP119]	4%	19%	45%			
CC[C@H](C)[C@H](NC(=O)[C@H](CCCCN)NC(=O)[C@H](CCCCN)NC(=O)[C@H](Cc1ccccc1)NC(=O)[C@H](CC(C)C)NC(=O)[C@H](CCCCN)NC(=O)[C@H](CC(C)C)NS(=O)(=O)c1ccc(C)cc1)C(=O)N[C@@H](CC(C)C)C(=O)N[C@@H](CCCCN)C(=O)N[C@@H](Cc1c[nH]c2ccccc12)C(=O)N[C@@H](CC(C)C)C(N)=O [BP059] (Tos-LKLFKKILKWL-NH2)				2.5 µM	>7.5 µM	>7.5 µM
CC[C@H](C)[C@H](NC(=O)[C@H](CCCCN)NC(=O)[C@H](CCCCN)NC(=O)[C@H](Cc1ccccc1)NC(=O)[C@H](CC(C)C)NC(=O)[C@H](CCCCN)NC(=O)[C@H](CCCCN)NS(=O)(=O)c1ccc(C)cc1)C(=O)N[C@@H](CC(C)C)C(=O)N[C@@H](CCCCN)C(=O)N[C@H](C(=O)N[C@@H](CC(C)C)C(N)=O)C(C)C [BP030]	25%	70%	80%	5 to 7.5 µM	5 to 7.5 µM	5 to 7.5 µM
LKLFKKILKFL-NH2 [BP081]	10%	65%	88%	<2.5 µM	2.5 to 5 µM	2.5 to 5 µM
CC[C@H](C)[C@H](NC(=O)[C@H](CCCCN)NC(=O)[C@H](CCCCN)NC(=O)[C@H](Cc1ccccc1)NC(=O)[C@H](CC(C)C)NC(=O)[C@H](CCCCN)NC(=O)[C@H](CCCCN)NS(=O)(=O)c1ccc(C)cc1)C(=O)N[C@@H](CC(C)C)C(=O)N[C@@H](CCCCN)C(=O)N[C@@H](Cc1ccccc1)C(=O)N[C@@H](CC(C)C)C(N)=O [BP078]	40%	85%	95%	<2.5 µM	5 to 7.5 µM	5 to 7.5 µM
CC[C@H](C)[C@H](NC(=O)[C@H](CCCCN)NC(=O)[C@H](CCCCN)NC(=O)[C@H](Cc1ccccc1)NC(=O)[C@H](CC(C)C)NC(=O)[C@H](CCCCN)NC(=O)[C@H](CCCCN)NS(=O)(=O)c1ccc(C)cc1)C(=O)N[C@@H](CC(C)C)C(=O)N[C@@H](CCCCN)C(=O)N[C@@H](Cc1ccc(O)cc1)C(=O)N[C@@H](CC(C)C)C(N)=O [BP102]	39%	79%	80%	<2.5 µM	5 to 7.5 µM	2.5 to 5 µM
Ac-YKLFKKILKKL-NH2 [BP120]				5 to 7.5 µM	>7.5 µM	5 to 7.5 µM
LKLFKKILKKL-NH2 [BP128]	2%	31%	66%			
CC[C@H](C)[C@H](NC(=O)[C@H](CCCCN)NC(=O)[C@H](CCCCN)NC(=O)[C@H](Cc1ccccc1)NC(=O)[C@H](CC(C)C)NC(=O)[C@H](CCCCN)NC(=O)[C@H](CCCCN)NC(C)=O)C(=O)N[C@@H](CC(C)C)C(=O)N[C@@H](CCCCN)C(=O)N[C@@H](CCCCN)C(=O)N[C@@H](CC(C)C)C(N)=O [BP124]	1%	5%	23%			
Ac-KKLFKKILKVL-NH2 [BP029]				7.5 µM	5 to 7.5 µM	5 to 7.5 µM
CC[C@H](C)[C@H](NC(=O)[C@H](CCCCN)NC(=O)[C@H](CCCCN)NC(=O)[C@H](Cc1ccccc1)NC(=O)[C@H](CC(C)C)NC(=O)[C@H](CCCCN)NC(=O)[C@@H](N)CCCCN)C(=O)N[C@@H](CC(C)C)C(=O)N[C@@H](CCCCN)C(=O)N[C@@H](Cc1c[nH]c2ccccc12)C(=O)N[C@@H](CC(C)C)C(N)=O [BP017]				5 to 7.5 µM	>7.5 µM	5 to 7.5 µM
